Laboratory results reported in PubChem BioAssay AID248 (DTP/NCI, 2004).
Values joined by “and” are separate entries in the source; they are usually repeats but may differ in a detail not shown here. Equal values may be shown once. Toxic doses and inconclusive results are not listed.

Tested on: L1210 leukemia ip in BDF1 mice, survival T/C
Assay: NCI In Vivo Anticancer Drug Screen. Data for tumor model L1210 Leukemia (intraperitoneal) in B6D2F1 (BDF1) mice
Conditions: endpoint: mean survival time, higher = longer survival
Method in brief: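 Value reflects the ratio of survival in compound-treated mice to survival in vehicle-treated controls, with both groups carrying the same transplanted tumor.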

COC(C(=O)C(O)C(C)O)C1Cc2cc3cc(OC4CC(OC(C)=O)C(OC5CC(O)C(OC)C(C)O5)C(C)O4)cc(O)c3c(O)c2C(=O)C1OC1CC(OC2CC(OC3CC(C)(O)C(OC(=O)C(C)C)C(C)O3)C(O)C(C)O2)C(O)C(C)O1 (stereo not drawn)
T/C (dose: 0.09 mg/kg/injection, schedule: Q01DX017 (ip), vehicle: carboxymethylcellulose (CMC)): 97 % of control
T/C (dose: 0.18 mg/kg/injection, schedule: Q01DX017 (ip), vehicle: carboxymethylcellulose (CMC)): 109 % of control
T/C (dose: 0.18 mg/kg/injection, schedule: Q## X005 (ip), vehicle: carboxymethylcellulose (CMC)): 98 % of control
T/C (dose: 0.2 mg/kg/injection, schedule: Q01DX015 (ip), vehicle: carboxymethylcellulose (CMC)): 102 % of control
T/C (dose: 0.24 mg/kg/injection, schedule: Q## X024 (ip), vehicle: carboxymethylcellulose (CMC)): 92 % of control
T/C (dose: 0.25 mg/kg/injection, schedule: Q01DX009 (ip), vehicle: other): 103 % of control
T/C (dose: 0.25 mg/kg/injection, schedule: Q## X003 (ip), vehicle: carboxymethylcellulose (CMC)): 94 % of control
T/C (dose: 0.25 mg/kg/injection, schedule: Q#A X034 (ip), vehicle: carboxymethylcellulose (CMC)): 119 % of control
T/C (dose: 0.37 mg/kg/injection, schedule: Q01DX001 (ip), vehicle: carboxymethylcellulose (CMC)): 101 % of control
T/C (dose: 0.37 mg/kg/injection, schedule: Q01DX010 (ip), vehicle: saline): 116 % of control
T/C (dose: 0.37 mg/kg/injection, schedule: Q02DX005 (ip), vehicle: saline): 101 % of control
T/C (dose: 0.37 mg/kg/injection, schedule: Q02DX009 (ip), vehicle: carboxymethylcellulose (CMC)): 121 % of control
T/C (dose: 0.37 mg/kg/injection, schedule: Q## X003 (ip), vehicle: saline): 98 % of control
T/C (dose: 0.37 mg/kg/injection, schedule: Q## X005 (ip), vehicle: carboxymethylcellulose (CMC)): 107 % of control
T/C (dose: 0.4 mg/kg/injection, schedule: Q01DX015 (ip), vehicle: carboxymethylcellulose (CMC)): 120 % of control
T/C (dose: 0.48 mg/kg/injection, schedule: Q## X024 (ip), vehicle: carboxymethylcellulose (CMC)): 89 % of control
T/C (dose: 0.5 mg/kg/injection, schedule: Q01DX001 (ip), vehicle: saline): 103 % of control
T/C (dose: 0.5 mg/kg/injection, schedule: Q01DX005 (ip), vehicle: carboxymethylcellulose (CMC)): 106 % of control
T/C (dose: 0.5 mg/kg/injection, schedule: Q01DX006 (iv), vehicle: carboxymethylcellulose (CMC)): 104 % of control
T/C (dose: 0.5 mg/kg/injection, schedule: Q01DX009 (ip), vehicle: carboxymethylcellulose (CMC)): 113 % of control
T/C (dose: 0.5 mg/kg/injection, schedule: Q01DX009 (ip), vehicle: other): 122 % of control
T/C (dose: 0.5 mg/kg/injection, schedule: Q01DX015 (im), vehicle: carboxymethylcellulose (CMC)): 97 % of control
T/C (dose: 0.5 mg/kg/injection, schedule: Q01DX015 (sc), vehicle: carboxymethylcellulose (CMC)): 95 % of control
T/C (dose: 0.5 mg/kg/injection, schedule: Q01DX Z (ip), vehicle: saline): 123 % of control
T/C (dose: 0.5 mg/kg/injection, schedule: Q## X003 (ip), vehicle: carboxymethylcellulose (CMC)): 93 % of control
T/C (dose: 0.75 mg/kg/injection, schedule: Q01DX001 (ip), vehicle: carboxymethylcellulose (CMC)): 106 % of control
T/C (dose: 0.75 mg/kg/injection, schedule: Q02DX005 (ip), vehicle: saline): 116 % of control
T/C (dose: 0.75 mg/kg/injection, schedule: Q## X003 (ip), vehicle: saline): 105 % of control
T/C (dose: 0.75 mg/kg/injection, schedule: Q## X005 (ip), vehicle: carboxymethylcellulose (CMC)): 117 % of control
T/C (dose: 1.0 mg/kg/injection, schedule: Q01DX001 (ip), vehicle: other): 94 % of control
T/C (dose: 1.0 mg/kg/injection, schedule: Q01DX001 (ip), vehicle: saline): 114 % of control and 115 % of control
T/C (dose: 1.0 mg/kg/injection, schedule: Q01DX005 (ip), vehicle: carboxymethylcellulose (CMC)): 110 % of control
T/C (dose: 1.0 mg/kg/injection, schedule: Q01DX006 (iv), vehicle: carboxymethylcellulose (CMC)): 96 % of control
T/C (dose: 1.0 mg/kg/injection, schedule: Q01DX009 (ip), vehicle: carboxymethylcellulose (CMC)): 116 % of control
T/C (dose: 1.0 mg/kg/injection, schedule: Q01DX009 (ip), vehicle: other): 114 % of control
T/C (dose: 1.0 mg/kg/injection, schedule: Q01DX015 (im), vehicle: carboxymethylcellulose (CMC)): 101 % of control
T/C (dose: 1.0 mg/kg/injection, schedule: Q01DX015 (sc), vehicle: carboxymethylcellulose (CMC)): 105 % of control
T/C (dose: 1.0 mg/kg/injection, schedule: Q01DX017 (ip), vehicle: carboxymethylcellulose (CMC)): 163 % of control
T/C (dose: 1.0 mg/kg/injection, schedule: Q01DX Z (ip), vehicle: saline): 115 % of control
T/C (dose: 1.0 mg/kg/injection, schedule: Q02DX009 (ip), vehicle: carboxymethylcellulose (CMC)): 154 % of control
T/C (dose: 1.0 mg/kg/injection, schedule: Q## X002 (ip), vehicle: carboxymethylcellulose (CMC)): 88 % of control
T/C (dose: 1.0 mg/kg/injection, schedule: Q## X003 (ip), vehicle: carboxymethylcellulose (CMC)): 95 % of control
T/C (dose: 1.0 mg/kg/injection, schedule: Q## X008 (ip), vehicle: carboxymethylcellulose (CMC)): 88 % of control
T/C (dose: 1.0 mg/kg/injection, schedule: Q## X024 (ip), vehicle: carboxymethylcellulose (CMC)): 93 % of control
T/C (dose: 1.0 mg/kg/injection, schedule: Q#A X034 (ip), vehicle: carboxymethylcellulose (CMC)): 170 % of control
T/C (dose: 1.5 mg/kg/injection, schedule: Q01DX001 (ip), vehicle: carboxymethylcellulose (CMC)): 117 % of control
T/C (dose: 1.5 mg/kg/injection, schedule: Q01DX001 (ip), vehicle: saline): 114 % of control
T/C (dose: 1.5 mg/kg/injection, schedule: Q01DX013 (ip), vehicle: saline): 124 % of control
T/C (dose: 1.5 mg/kg/injection, schedule: Q02DX005 (ip), vehicle: saline): 122 % of control
T/C (dose: 1.5 mg/kg/injection, schedule: Q02DX009 (ip), vehicle: carboxymethylcellulose (CMC)): 162 % of control
T/C (dose: 1.6 mg/kg/injection, schedule: Q01DX013 (ip), vehicle: saline): 163 % of control
T/C (dose: 2.0 mg/kg/injection, schedule: Q01DX001 (ip), vehicle: other): 108 % of control
T/C (dose: 2.0 mg/kg/injection, schedule: Q01DX001 (ip), vehicle: saline): 116 % of control and 123 % of control
T/C (dose: 2.0 mg/kg/injection, schedule: Q01DX005 (ip), vehicle: carboxymethylcellulose (CMC)): 123 % of control
T/C (dose: 2.0 mg/kg/injection, schedule: Q01DX006 (iv), vehicle: carboxymethylcellulose (CMC)): 121 % of control
T/C (dose: 2.0 mg/kg/injection, schedule: Q01DX009 (ip), vehicle: other): 177 % of control
T/C (dose: 2.0 mg/kg/injection, schedule: Q01DX009 (ip), vehicle: saline): 166 % of control
T/C (dose: 2.0 mg/kg/injection, schedule: Q01DX015 (im), vehicle: carboxymethylcellulose (CMC)): 121 % of control
T/C (dose: 2.0 mg/kg/injection, schedule: Q01DX015 (ip), vehicle: carboxymethylcellulose (CMC)): 195 % of control
T/C (dose: 2.0 mg/kg/injection, schedule: Q01DX015 (oral), vehicle: carboxymethylcellulose (CMC)): 101 % of control
T/C (dose: 2.0 mg/kg/injection, schedule: Q01DX015 (sc), vehicle: carboxymethylcellulose (CMC)): 114 % of control
T/C (dose: 2.0 mg/kg/injection, schedule: Q01DX017 (ip), vehicle: carboxymethylcellulose (CMC)): 184 % of control
T/C (dose: 2.0 mg/kg/injection, schedule: Q01DX Z (ip), vehicle: saline): 106 % of control
T/C (dose: 2.0 mg/kg/injection, schedule: Q02DX009 (ip), vehicle: carboxymethylcellulose (CMC)): 192 % of control
T/C (dose: 2.0 mg/kg/injection, schedule: Q## X002 (ip), vehicle: carboxymethylcellulose (CMC)): 100 % of control
T/C (dose: 2.0 mg/kg/injection, schedule: Q## X003 (ip), vehicle: carboxymethylcellulose (CMC)): 113 % of control
T/C (dose: 2.0 mg/kg/injection, schedule: Q## X005 (ip), vehicle: carboxymethylcellulose (CMC)): 150 % of control
T/C (dose: 2.0 mg/kg/injection, schedule: Q## X008 (ip), vehicle: carboxymethylcellulose (CMC)): 97 % of control
T/C (dose: 2.0 mg/kg/injection, schedule: Q## X016 (ip), vehicle: carboxymethylcellulose (CMC)): 97 % of control
T/C (dose: 2.0 mg/kg/injection, schedule: Q## X024 (ip), vehicle: carboxymethylcellulose (CMC)): 103 % of control
T/C (dose: 3.0 mg/kg/injection, schedule: Q01DX001 (ip), vehicle: carboxymethylcellulose (CMC)): 115 % of control
T/C (dose: 3.0 mg/kg/injection, schedule: Q01DX001 (ip), vehicle: saline): 118 % of control
T/C (dose: 3.0 mg/kg/injection, schedule: Q02DX009 (ip), vehicle: carboxymethylcellulose (CMC)): 151 % of control
T/C (dose: 3.0 mg/kg/injection, schedule: Q## X005 (ip), vehicle: carboxymethylcellulose (CMC)): 152 % of control
T/C (dose: 3.2 mg/kg/injection, schedule: Q01DX015 (ip), vehicle: carboxymethylcellulose (CMC)): 163 % of control
T/C (dose: 4.0 mg/kg/injection, schedule: Q01DX001 (ip), vehicle: other): 97 % of control
T/C (dose: 4.0 mg/kg/injection, schedule: Q01DX001 (ip), vehicle: saline): 104 % of control
T/C (dose: 4.0 mg/kg/injection, schedule: Q01DX006 (iv), vehicle: carboxymethylcellulose (CMC)): 122 % of control
T/C (dose: 4.0 mg/kg/injection, schedule: Q01DX009 (ip), vehicle: carboxymethylcellulose (CMC)): 114 % of control
T/C (dose: 4.0 mg/kg/injection, schedule: Q01DX009 (ip), vehicle: other): 101 % of control
T/C (dose: 4.0 mg/kg/injection, schedule: Q01DX015 (im), vehicle: carboxymethylcellulose (CMC)): 94 % of control
T/C (dose: 4.0 mg/kg/injection, schedule: Q01DX015 (oral), vehicle: carboxymethylcellulose (CMC)): 104 % of control
T/C (dose: 4.0 mg/kg/injection, schedule: Q01DX015 (sc), vehicle: carboxymethylcellulose (CMC)): 115 % of control
T/C (dose: 4.0 mg/kg/injection, schedule: Q02DX009 (ip), vehicle: carboxymethylcellulose (CMC)): 259 % of control
T/C (dose: 4.0 mg/kg/injection, schedule: Q## X002 (ip), vehicle: carboxymethylcellulose (CMC)): 106 % of control
T/C (dose: 4.0 mg/kg/injection, schedule: Q## X005 (ip), vehicle: carboxymethylcellulose (CMC)): 170 % of control
T/C (dose: 4.0 mg/kg/injection, schedule: Q## X008 (ip), vehicle: carboxymethylcellulose (CMC)): 104 % of control
T/C (dose: 4.0 mg/kg/injection, schedule: Q## X016 (ip), vehicle: carboxymethylcellulose (CMC)): 97 % of control
T/C (dose: 6.0 mg/kg/injection, schedule: Q02DX009 (ip), vehicle: carboxymethylcellulose (CMC)): 113 % of control
T/C (dose: 8.0 mg/kg/injection, schedule: Q01DX001 (ip), vehicle: carboxymethylcellulose (CMC)): 98 % of control
T/C (dose: 8.0 mg/kg/injection, schedule: Q01DX001 (ip), vehicle: other): 101 % of control
T/C (dose: 8.0 mg/kg/injection, schedule: Q01DX015 (oral), vehicle: carboxymethylcellulose (CMC)): 97 % of control
T/C (dose: 8.0 mg/kg/injection, schedule: Q## X002 (ip), vehicle: carboxymethylcellulose (CMC)): 116 % of control
T/C (dose: 16.0 mg/kg/injection, schedule: Q01DX015 (oral), vehicle: carboxymethylcellulose (CMC)): 101 % of control
T/C (dose: 32.0 mg/kg/injection, schedule: Q01DX015 (oral), vehicle: carboxymethylcellulose (CMC)): 109 % of control
T/C (dose: 62.5 micrograms/kg/injection, schedule: Q01DX Z (ip), vehicle: saline): 108 % of control
T/C (dose: 125.0 micrograms/kg/injection, schedule: Q01DX Z (ip), vehicle: saline): 109 % of control
T/C (dose: 250.0 micrograms/kg/injection, schedule: Q01DX Z (ip), vehicle: saline): 114 % of control
